{"source": "patent US20060211764A1", "about": "“Cell activator, process for producing cell activator and apparatus therefor” (priority 2002, published 2006)", "key": {"[1]": {"tested_on": "pyruvic acid kinase", "assay": "Inhibition of pyruvic acid kinase activity", "type": "biochemical", "settings": "enzyme of the anaerobic glycolytic pathway", "source_text": "(§1) Morphologically, it causes vacuolation, and the expansion of the cytoplasm of cells, disintegration and aggregation of the nucleus. […] These are considered to inhibit not only the synthesis of ATP but also the actions of mRNA and be involved in the synthesis of RNA and DNA, and the generation of intracellular energy by acting on the metabolism of the intracellular organelle such as rough-surfaced endoplasmic reticulum, smooth-surfaced endoplasmic reticulum, ribosome, Golgi apparatus, etc., and as a result, controlling the metabolism of the cells, influencing the synthesis of proteins/glycoprotein, intracellular lipid metabolism, and movement and transport of ions. […] Morphologically, in the case that cells end up degenerating, the degeneration generally changes first to the nucleus followed by the cytoplasm."}, "[2]": {"tested_on": "lactate dehydrogenases (LDH)", "assay": "Inhibition of lactate dehydrogenase activity of cancer cells", "type": "biochemical", "source_text": "as §1"}, "[3]": {"tested_on": "constipation", "assay": "Bowel movement and constipation during ingestion", "type": "in vivo, human", "settings": "CPL ingestion; laxative discontinued"}, "[4]": {"tested_on": "uterine cervical cancer", "type": "in vivo, human", "settings": "ingesting CPL", "source_text": "In the case of elderly people whose metabolic functions are weaker, ingesting a large amount of a drug often causes adverse reactions and invites risks. […] This patient was taking a strong painkiller when fighting against cancer, which could be replaced by a common painkiller after taking CPL."}, "[5]": {"assay": "Examinations after ingestion by healthy subjects and long-term patients", "type": "in vivo, human"}, "[6]": {"tested_on": "gastric cancer", "assay": "Administration to human patients, gastric cancer", "type": "in vivo", "source_text": "Patient, gastric cancer had metastasized in the liver; countless cancer cells metastasized and dispersed in the liver.\nGastric cancer was detected as a result of a detailed examination, extirpated soon after the discovery, cancer as large as a head of a fetus was removed. Scattered additionally in the peritoneal cavity: Life expectancy was 3-6 months.\nperson, metastasized in the pancreas and peritoneum."}, "[7]": {"tested_on": "ovarian cyst", "assay": "Administration to human patients, ovarian cyst (ultrasonography, MRI)", "type": "in vivo", "source_text": "A case of a patient whose uterus was extirpated due to uterine myoma. This patient has had two celitomies with a caesarean section. They received an examination for cancer because abnormal bleeding has continued recently. […] Moreover, a prominent part was found in part of the cyst and it was suspected to be malign (Photograph (1)).\nThe size of the ovarian cyst measured with ultrasonography carried out a few days later was reduced down to approximately 4 cm (Photograph (2)).\nA case of a patient whose wedding day was drawing close. […] In consideration that hormone abnormalities were the cause, follow-ups were made for 2-3 weeks. Carrying out a subsequent examination, the ovary was further swollen to 6.5 cm (Photograph 5)."}, "[8]": {"tested_on": "hepatitis C", "assay": "Administration to a human patient, hepatitis C", "type": "in vivo", "settings": "person; 20 g/day for 16 months"}, "[9]": {"tested_on": "baldness", "assay": "Spray and oral powder, baldness", "type": "in vivo, human", "settings": "spray twice a day (10 g in terms of CPL powder) and 10 g/day orally for approximately 50 days", "source_text": "The said spraying agent was sprayed on a bald part of a head."}, "[10]": {"tested_on": "breast cancer", "assay": "Administration to human patients, breast cancer", "type": "in vivo", "settings": "20 g/day for 210 days", "source_text": "After extirpation, metastasized to the eye.\nperson, metastasized to the bone marrow."}, "[11]": {"tested_on": "infertility", "assay": "Administration to human patients, infertility", "type": "in vivo"}, "[12]": {"tested_on": "ketosis", "assay": "Administration to bovines, ketosis (obese syndrome)", "type": "in vivo, bovine", "settings": "100 g/day mesothiol 10 days before delivery, then 100g/day of CPL in combination for 7 days after delivery", "procedure": "For 10 days before the expected date of delivery, 100 g/day of mesothiol was administered in bovines with ketosis."}, "[13]": {"tested_on": "pulmonary cancer metastasis lymphoma", "assay": "Administration to a human patient, pulmonary cancer metastasis lymphoma", "type": "in vivo", "settings": "person; 15 g/day for 180 days"}, "[14]": {"tested_on": "cervical malign lymphoma", "assay": "Administration to a human patient, cervical malign lymphoma", "type": "in vivo", "settings": "person; 20 g/day for 360 days"}, "[15]": {"tested_on": "leukemia", "assay": "Administration to human patients, leukemia", "type": "in vivo", "settings": "person"}, "[16]": {"tested_on": "tongue cancer", "assay": "Administration to a human patient, tongue cancer", "type": "in vivo", "settings": "person; 20 g/day for 120 days"}, "[17]": {"tested_on": "infantile asthma, atopic dermatitis", "assay": "Administration to a child, infantile asthma, atopic dermatitis", "type": "in vivo, human", "settings": "CPL solution plus spraying agent, 15 g/day for 40 days, 10 g/day for next 140 days", "procedure": "In addition to the said solution, a spraying agent was used. The said spraying agent was prepared by filling a spraying container with a solution, which was prepared by further diluting by a flux the ointment manufactured by dissolving cyclic polylactic acids in a flux such as propylene glycol, etc. before they solidify, which was described in the <Example of manufacturing> section."}}, "data": [{"substance": "Cyclic Poly-lactate [CPL]", "values": [{"measurement": "activity of pyruvic acid kinase", "setting": "[1]", "result": "inhibits"}, {"measurement": "activity of lactate dehydrogenases (LDH)", "setting": "[2]", "result": "inhibits"}, {"measurement": "defecation of patients suffering from constipation", "setting": "[3]", "result": "improved defecation"}, {"measurement": "pain of patients suffering from advanced cancer", "setting": "[4]", "result": "diminishes the pain rapidly"}, {"measurement": "effect on results of examinations (physical findings, hematological/biochemical tests, urine and faeces)", "setting": "[5]; healthy subjects, 6 g/day", "result": "not to affect"}, {"measurement": "effect on biogenic basic functions (appetite, sleep, changes in weight, libido)", "setting": "[5]; human, in vivo", "result": "no effect"}, {"measurement": "abnormal findings from examinations", "setting": "[5]; patients who have taken 6 g/day for 3-5 years", "result": "no abnormal findings at all"}, {"measurement": "cancer blocks metastasized in the liver", "setting": "[6]; male, gastric cancer metastasized in the liver, CPL for 2 weeks", "result": "necrotized"}, {"measurement": "course of terminal inoperable gastric cancer", "setting": "[6]; person, metastasized in pancreas and peritoneum, 30 g/day for 150 days", "result": "progressing satisfactorily"}, {"measurement": "recurrence after extirpation of gastric cancer", "setting": "[6]; scattered in peritoneal cavity, life expectancy 3-6 months, 10 g/day for 5 months", "result": "no sign of a recurrence"}, {"measurement": "ovarian cyst at preoperative MRI examination", "setting": "[7]; patient, 30-40 g/day until operation", "result": "disappeared"}, {"measurement": "size of ovarian cyst by ultrasonography", "setting": "[7]; patient, 30-40 g/day, a few days later, initially approximately 5 cm", "result": "approximately 4 cm"}, {"measurement": "ovarian cyst after further administration", "setting": "[7]; person, 2 weeks after further administration", "result": "disappeared completely"}, {"measurement": "size of ovarian cyst by ultrasonography", "setting": "[7]; person, CPL for 2 weeks, 6.5 cm before", "result": "below 4 cm"}, {"measurement": "condition of hepatitis C patient", "setting": "[8]", "result": "satisfactory condition"}, {"measurement": "shadow on the liver", "setting": "[8]", "result": "disappeared"}, {"measurement": "hair growth on bald part of head", "setting": "[9]", "result": "hair growth is achieved"}, {"measurement": "course of breast cancer metastasized to the eye", "setting": "[10]; after extirpation", "result": "satisfactory progress"}, {"measurement": "tumor marker", "setting": "[10]; person, breast cancer metastasized to bone marrow, decreased from 200", "result": 5}, {"measurement": "number of patients who conceived", "setting": "[11]; 10 patients with infertility, 6-9 g/day", "result": 8}, {"measurement": "lower abdominal pain", "setting": "[11]; person, endometriosis, ovarian cyst, 6 g/day, within the next 2-3 days", "result": "ameliorated"}, {"measurement": "conception", "setting": "[11]; person, after endometriosis symptoms ameliorated", "result": "naturally conceived"}, {"measurement": "level of γGTP", "setting": "[12]; 100 in onset", "result": 35}, {"measurement": "level of GOT", "setting": "[12]; 549 in onset", "result": 83}, {"measurement": "course of pulmonary cancer metastasis lymphoma", "setting": "[13]", "result": "satisfactory progress"}, {"measurement": "outcome of cervical malign lymphoma", "setting": "[14]", "result": "cured"}, {"measurement": "outcome of leukemia", "setting": "[15]; 15-20 g/day for 170 days", "result": "cured"}, {"measurement": "outcome of leukemia", "setting": "[15]; 15 g/day for 5 months", "result": "cured"}, {"measurement": "outcome of leukemia", "setting": "[15]; 15 g/day for 220 days", "result": "cured"}, {"measurement": "recurrence of leukemia", "setting": "[15]; for 2 years onwards", "result": "No recurrence"}, {"measurement": "outcome of tongue cancer", "setting": "[16]", "result": "completely disappeared"}, {"measurement": "asthmatic seizures", "setting": "[17]", "result": "stopped"}, {"measurement": "eczema on the back and face", "setting": "[17]", "result": "disappeared"}, {"measurement": "itchiness", "setting": "[17]", "result": "cured"}]}]}
